From US20150141381A1, “TETRACYCLINE COMPOUNDS HAVING TARGET THERAPEUTIC ACTIVITIES” (Paratek Pharmaceuticals, Inc., priority 2001, published 2015)
Like-named read-outs stand apart in the source and are kept apart here.

Key:
[1] = test system: E. coli mL308 225; test: In Vitro Anti-Bacterial Activity Assay (MIC), gram negative; format: cell-based; settings: Escherichia coli, ML308225, 18 h, read-out: Antibiotic Activity Gram − (MIC)
[2] = test system: S. aureus RN450; test: In Vitro Anti-Bacterial Activity Assay (MIC), gram positive; format: cell-based; settings: Staphylococcus aureus, RN450, 18 h, gram positive bacteria; read-out: Antibiotic Activity Gram + (MIC)

SMILES | MIC ([1]; gram negative bacteria) | MIC [2] | MIC [1]
CN(C)[C@@H]1C(O)=C(C(N)=O)C(=O)[C@@]2(O)C(O)=C3C(=O)c4c(ccc(N5CCCCC5)c4O)C[C@H]3C[C@@H]12 | > 4 µg/mL | > 4 µg/mL | 
CN(C)Cc1cc(N(C)C)c2c(c1O)C(=O)C1=C(O)[C@]3(O)C(=O)C(C(N)=O)=C(O)[C@@H](N(C)C)[C@@H]3C[C@@H]1C2 | > 4 µg/mL | < 4 µg/mL | 
CN1C=CC(Nc2cc(C3=COCC3)c3c(c2O)C(=O)C2=C(O)[C@]4(O)C(=O)C(C(N)=O)=C(O)[C@@H](N(C)C)[C@@H]4C[C@@H]2C3)CC1 (stereo partly shown) | > 4 µg/mL | < 4 µg/mL | 
C[C@H]1c2ccc(NC3CC(C)(C)NC(C)(C)C3)c(O)c2C(=O)C2=C(O)[C@]3(O)C(=O)C(C(N)=O)=C(O)[C@@H](N(C)C)[C@@H]3[C@@H](O)[C@@H]21 | > 4 µg/mL | < 4 µg/mL | 
CC(CF)NCc1cc(N(C)C)c2c(c1O)C(=O)C1=C(O)[C@]3(O)C(=O)C(C(N)=O)=C(O)[C@@H](N(C)C)[C@@H]3C[C@@H]1C2 (stereo partly shown) |  | < 4 µg/mL | > 4 µg/mL
CN(C)c1cc(CNC2CCCC2)c(O)c2c1C[C@H]1C[C@H]3[C@H](N(C)C)C(O)=C(C(N)=O)C(=O)[C@@]3(O)C(O)=C1C2=O | > 4 µg/mL | < 4 µg/mL | 
CC(CCO)NCc1cc(N(C)C)c2c(c1O)C(=O)C1=C(O)[C@]3(O)C(=O)C(C(N)=O)=C(O)[C@@H](N(C)C)[C@@H]3C[C@@H]1C2 (stereo partly shown) | > 4 µg/mL | < 4 µg/mL | 
CN(C)CCN(C)Cc1ccc(-c2cc(N(C)C)c3c(c2O)C(=O)C2=C(O)[C@]4(O)C(=O)C(C(N)=O)=C(O)[C@@H](N(C)C)[C@@H]4C[C@@H]2C3)[nH]1 | > 4 µg/mL | > 4 µg/mL | 
CCNCC(=O)NCc1cc(N(C)C)c2c(c1O)C(=O)C1=C(O)[C@]3(O)C(=O)C(C(N)=O)=C(O)[C@@H](N(C)C)[C@@H]3C[C@@H]1C2 | > 4 µg/mL | > 4 µg/mL | 
CN1CCC(NCc2cc(N(C)C)c3c(c2O)C(=O)C2=C(O)[C@]4(O)C(=O)C(C(N)=O)=C(O)[C@@H](N(C)C)[C@@H]4C[C@@H]2C3)CC1 | > 4 µg/mL | > 4 µg/mL | 
CN(C)c1cc(CNC(=O)C(Cc2ccccc2)N(C)C)c(O)c2c1C[C@H]1C[C@H]3[C@H](N(C)C)C(O)=C(C(N)=O)C(=O)[C@@]3(O)C(O)=C1C2=O (stereo partly shown) | > 4 µg/mL | < 4 µg/mL | 
CN(C)c1cc(CNCC2CCNCC2)c(O)c2c1C[C@H]1C[C@H]3[C@H](N(C)C)C(O)=C(C(N)=O)C(=O)[C@@]3(O)C(O)=C1C2=O | > 4 µg/mL | > 4 µg/mL | 
CN(C)c1cc(CNCC2CCOCC2)c(O)c2c1C[C@H]1C[C@H]3[C@H](N(C)C)C(O)=C(C(N)=O)C(=O)[C@@]3(O)C(O)=C1C2=O | > 4 µg/mL | < 4 µg/mL | 
CN(C)[C@@H]1C(O)=C(C(N)=O)C(=O)[C@@]2(O)C(O)=C3C(=O)c4c(O)ccc(C#N)c4C[C@H]3C[C@@H]12 | < 4 µg/mL | < 4 µg/mL | 
CN(C)[C@@H]1C(O)=C(C(N)=O)C(=O)[C@@]2(O)C(O)=C3C(=O)c4c(O)ccc(-c5ccc(CNC6CC6)o5)c4C[C@H]3C[C@@H]12 | < 4 µg/mL | < 4 µg/mL | 
COC(=O)C1CCN(Cc2ccc(-c3ccc(O)c4c3C[C@H]3C[C@H]5[C@H](N(C)C)C(O)=C(C(N)=O)C(=O)[C@@]5(O)C(O)=C3C4=O)cc2)CC1 | < 4 µg/mL | < 4 µg/mL | 
CN(C)c1cc(CNCc2cc[n+]([O-])cc2)c(O)c2c1C[C@H]1C[C@H]3[C@H](N(C)C)C(O)=C(C(N)=O)C(=O)[C@@]3(O)C(O)=C1C2=O | > 4 µg/mL | > 4 µg/mL | 
CN(C)c1cc(CN(Cc2ccn[nH]2)Cc2ccn[nH]2)c(O)c2c1C[C@H]1C[C@H]3[C@H](N(C)C)C(O)=C(C(N)=O)C(=O)[C@@]3(O)C(O)=C1C2=O | > 4 µg/mL | > 4 µg/mL | 
CN(C)c1cc(CN2CCCCC2)c(O)c2c1C[C@H]1C[C@H]3[C@H](N(C)C)C(O)=C(C(N)=O)C(=O)[C@@]3(O)C(O)=C1C2=O | < 4 µg/mL | < 4 µg/mL | 
CN(C)c1cc(CNC(=O)C2CCCN2)c(O)c2c1C[C@H]1C[C@H]3[C@H](N(C)C)C(O)=C(C(N)=O)C(=O)[C@@]3(O)C(O)=C1C2=O (stereo partly shown) | > 4 µg/mL | > 4 µg/mL | 
CN(C)c1cc(CNC(=O)C2(N)CC2)c(O)c2c1C[C@H]1C[C@H]3[C@H](N(C)C)C(O)=C(C(N)=O)C(=O)[C@@]3(O)C(O)=C1C2=O | > 4 µg/mL | < 4 µg/mL | 
CN(C)CC(=O)NCc1cc(N(C)C)c2c(c1O)C(=O)C1=C(O)[C@]3(O)C(=O)C(C(N)=O)=C(O)[C@@H](N(C)C)[C@@H]3C[C@@H]1C2 | > 4 µg/mL | < 4 µg/mL | 
C#Cc1cc(CNC(=O)N2CCOCC2)c2c(c1O)C(=O)C1=C(O)[C@]3(O)C(=O)C(C(N)=O)=C(O)[C@@H](N(C)C)[C@@H]3C[C@@H]1C2 | > 4 µg/mL | > 4 µg/mL | 
